Measured values taken from the supplement of paper PMC10307832.

How the values were obtained:
Experiment in all cases: relative viability (nuclei count vs DMSO), 5 days (fraction); higher = more cells survive
HOP-62 = tested on: HOP-62
Method in brief: (§1)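 Cells from lung cancer lines were seeded into 1536-well plates and, one day later, dosed by pin tool. Treatments were either a single drug or a fixed dose of an anchor drug with five library-drug doses (not always all listed) in √10 steps. After 5 days, nuclei were stained in a one-step fixation (final 0.05% Triton X-100, 1% formaldehyde, 1 ug/ml Hoechst) and counted on 4× images, and relative viability is the treated-to-vehicle nuclei ratio, as the median of duplicate plates.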

COR-L 105 = tested on: COR-L 105
Method in brief: as §1

LXF-289 = tested on: LXF-289
Method in brief: as §1

LCLC-97TM1 = tested on: LCLC-97TM1
Method in brief: as §1

NCI-H1944 = tested on: NCI-H1944
Method in brief: as §1

NCI-H2085 = tested on: NCI-H2085
Method in brief: as §1

NCI-H1793 = tested on: NCI-H1793
Method in brief: as §1

UMC-11 = tested on: UMC-11
Method in brief: as §1

LC-2-ad = tested on: LC-2-ad
Method in brief: as §1

NCI-H1915 = tested on: NCI-H1915
Method in brief: as §1

NCI-H1755 = tested on: NCI-H1755
Method in brief: as §1

NCI-H2170 = tested on: NCI-H2170
Method in brief: as §1

HCC-78 = tested on: HCC-78
Method in brief: as §1

EPLC-272H = tested on: EPLC-272H
Method in brief: as §1

SK-LU-1 = tested on: SK-LU-1
Method in brief: as §1

NCI-H1975 = tested on: NCI-H1975
Method in brief: as §1

NCI-H358 = tested on: NCI-H358
Method in brief: as §1

LU99A = tested on: LU99A
Method in brief: as §1

HCC-366 = tested on: HCC-366
Method in brief: as §1

NCI-H460 = tested on: NCI-H460
Method in brief: as §1

A-427 = tested on: A-427
Method in brief: as §1

NCI-H1792 = tested on: NCI-H1792
Method in brief: as §1

O=C(O)c1ccc(-c2c[nH]c3ncc(-c4ccccc4)cc23)cc1C1CCCC1 + Cc1nc(NC(=O)N2CCC[C@H]2C(N)=O)sc1-c1ccnc(C(C)(C)C(F)(F)F)c1 [Alpelisib] (partner 2 µM)
relative viability (HOP-62; first compound 0.04 µM): 0.709
relative viability (HOP-62; first compound 0.1265 µM): 1.02
relative viability (HOP-62; first compound 0.4 µM): 0.942
relative viability (HOP-62; first compound 1.265 µM): 0.922
relative viability (COR-L 105; first compound 0.04 µM): 0.893
relative viability (COR-L 105; first compound 0.1265 µM): 1.02
relative viability (COR-L 105; first compound 0.4 µM): 1.04
relative viability (COR-L 105; first compound 1.265 µM): 0.79
relative viability (LXF-289; first compound 0.04 µM): 0.979
relative viability (LXF-289; first compound 0.1265 µM): 1.05
relative viability (LXF-289; first compound 0.4 µM): 0.756
relative viability (LXF-289; first compound 1.265 µM): 0.286
relative viability (LCLC-97TM1; first compound 0.04 µM): 0.278
relative viability (LCLC-97TM1; first compound 0.1265 µM): 0.313
relative viability (LCLC-97TM1; first compound 0.4 µM): 0.239
relative viability (LCLC-97TM1; first compound 1.265 µM): 0.264
relative viability (NCI-H1944; first compound 0.04 µM): 0.871
relative viability (NCI-H1944; first compound 0.1265 µM): 0.94
relative viability (NCI-H1944; first compound 0.4 µM): 0.833
relative viability (NCI-H1944; first compound 1.265 µM): 0.745
relative viability (NCI-H2085; first compound 0.04 µM): 1.03
relative viability (NCI-H2085; first compound 0.1265 µM): 0.98
relative viability (NCI-H2085; first compound 0.4 µM): 0.944
relative viability (NCI-H2085; first compound 1.265 µM): 0.741
relative viability (NCI-H1793; first compound 0.04 µM): 0.622
relative viability (NCI-H1793; first compound 0.1265 µM): 0.706
relative viability (NCI-H1793; first compound 0.4 µM): 0.805
relative viability (NCI-H1793; first compound 1.265 µM): 0.754
relative viability (UMC-11; first compound 0.04 µM): 0.938
relative viability (UMC-11; first compound 0.1265 µM): 1.06
relative viability (UMC-11; first compound 0.4 µM): 1.02
relative viability (UMC-11; first compound 1.265 µM): 0.929
relative viability (LC-2-ad; first compound 0.04 µM): 0.86
relative viability (LC-2-ad; first compound 0.1265 µM): 0.906
relative viability (LC-2-ad; first compound 0.4 µM): 0.827
relative viability (LC-2-ad; first compound 1.265 µM): 0.573
relative viability (NCI-H1915; first compound 0.04 µM): 1.13
relative viability (NCI-H1915; first compound 0.1265 µM): 1.07
relative viability (NCI-H1915; first compound 0.4 µM): 1.04
relative viability (NCI-H1915; first compound 1.265 µM): 0.737
relative viability (NCI-H1755; first compound 0.04 µM): 0.952
relative viability (NCI-H1755; first compound 0.1265 µM): 1.02
relative viability (NCI-H1755; first compound 0.4 µM): 0.98
relative viability (NCI-H1755; first compound 1.265 µM): 0.923
relative viability (NCI-H2170; first compound 0.04 µM): 0.812
relative viability (NCI-H2170; first compound 0.1265 µM): 0.803
relative viability (NCI-H2170; first compound 0.4 µM): 0.774
relative viability (NCI-H2170; first compound 1.265 µM): 0.584
relative viability (HCC-78; first compound 0.04 µM): 0.397
relative viability (HCC-78; first compound 0.1265 µM): 0.361
relative viability (HCC-78; first compound 0.4 µM): 0.456
relative viability (HCC-78; first compound 1.265 µM): 0.321
relative viability (EPLC-272H; first compound 0.04 µM): 0.79
relative viability (EPLC-272H; first compound 0.1265 µM): 0.974
relative viability (EPLC-272H; first compound 0.4 µM): 0.949
relative viability (EPLC-272H; first compound 1.265 µM): 0.633
relative viability (SK-LU-1; first compound 0.04 µM): 0.901
relative viability (SK-LU-1; first compound 0.1265 µM): 1.06
relative viability (SK-LU-1; first compound 0.4 µM): 0.817
relative viability (SK-LU-1; first compound 1.265 µM): 0.548
relative viability (NCI-H1975; first compound 0.04 µM): 0.633
relative viability (NCI-H1975; first compound 0.1265 µM): 0.817
relative viability (NCI-H1975; first compound 0.4 µM): 0.652
relative viability (NCI-H1975; first compound 1.265 µM): 0.578
relative viability (NCI-H358; first compound 0.04 µM): 0.767
relative viability (NCI-H358; first compound 0.1265 µM): 0.904
relative viability (NCI-H358; first compound 0.4 µM): 0.708
relative viability (NCI-H358; first compound 1.265 µM): 0.381
relative viability (LU99A; first compound 0.04 µM): 0.597
relative viability (LU99A; first compound 0.1265 µM): 0.615
relative viability (LU99A; first compound 0.4 µM): 0.485
relative viability (LU99A; first compound 1.265 µM): 0.425
relative viability (HCC-366; first compound 0.04 µM): 0.443
relative viability (HCC-366; first compound 0.1265 µM): 0.721
relative viability (HCC-366; first compound 0.4 µM): 0.653
relative viability (HCC-366; first compound 1.265 µM): 0.32
relative viability (NCI-H460; first compound 0.04 µM): 0.518
relative viability (NCI-H460; first compound 0.1265 µM): 0.607
relative viability (NCI-H460; first compound 0.4 µM): 0.483
relative viability (NCI-H460; first compound 1.265 µM): 0.416
relative viability (A-427; first compound 0.04 µM): 1.03
relative viability (A-427; first compound 0.1265 µM): 1.13
relative viability (A-427; first compound 0.4 µM): 1.06
relative viability (A-427; first compound 1.265 µM): 0.93
relative viability (NCI-H1792; first compound 0.04 µM): 0.681
relative viability (NCI-H1792; first compound 0.1265 µM): 0.9
relative viability (NCI-H1792; first compound 0.4 µM): 0.688
relative viability (NCI-H1792; first compound 1.265 µM): 0.66
